The subject of one data set is green algae CD 1 Red. As to the kind of experiment: organism not typed. It counts as cell-based. To be noted: 120 h; CD1 Red, herbicide concentration 300 mM, 5 days; read-out: Average radii of the inhibition zones. The method, then:
After phototrophical propagation during the 5 days under cool fluorescence light (intensity 5000 lux), the average radii of inhibition zones were measured. Water soaked filter paper circles were used as controls. Experiments for each herbicide concentration were repeated 3 times.

The next data set is described as follows: Solubility (qualitative). It counts as physicochemical.
In data set [1] the test system is cyanobacteria Synechococcus 7002. As to the kind of experiment: Liquid culture growth inhibition (optical density), salt water cyanobacteria. It counts as cell-based. To be noted: Synechococcus 7002, residual salt control; untreated control 0.72. As to the method: Strains of green algae, cyanobacteria and E. Coli were used as test organisms. The green algae CD 1 Red and cyanobacteria Synechocystos 6803 were obtained from the collection of Prof. George Bullerjahn. Salt water strain of cyanobacteria Synechococcus 7002 was obtained from the collection of Prof. Michael McKay. E Coli DH 5α was obtained from Invitrogen Inc.
Green algae and cyanobacteria were propagated photoautotrophically in 250 mL Erlenmeyer flasks containing 100 mL of liquid BG-11 culture medium (see Supporting Information). The cultures were kept on a rotating shaker (100 rpm) at 25° C. for 4 days and continuously illuminated with cool-white fluorescent light with a constant light intensity of 5000 lux. The grown culture medium was sterilized in an autoclave at 121° C. and 1.05 kg cm^−2 pressure for 20 min. For the cell experiments, 20 mL aliquots of the BG-11 medium containing the green algal ([cells]initial=5.9×10^7 mL^−1) or cyanobacteria cells ([cells]initial=1.7×10^9 mL^−1) were placed in sterile 50 mL Erlenmeyer flasks. CD 1 Red, Synechocystos 6803 and Synechococcus 7002 were then treated with an aliquot of a stock herbicide solution to bring the final herbicide concentration to 1 mM and incubated for 7 days on a rotator shaker (100 rpm) at 25° C. and continuous light intensity of 5000 lux. Cell counts were correlated with the absorbance and measured as a function of time using a Spectronic 20 Genesis spectrophotometer. As previously reported by Ma et al., 5 the optimal wavelength for monitoring culture growth is 680 nm. Experiments for each herbicide were repeated three times. Control and treated cultures were grown under the same conditions of temperature, photoperiod, and agitation. In each experiment, the inhibition of cell growth in treated cultures was monitored spectrophotometrically and compared to the growth in control samples.

Each structure is given as a SMILES string.

As for `C=CC(N)=O` [acrylamide], in the data set on green algae CD 1 Red, the zone of inhibition at 300000 µM is 7.5 mm.

Regarding `C=C(C)C(=O)N(CC(=O)O)CP(=O)(O)O` [MA, N-Methacryloyl-N-(phosphonomethyl)glycine], in the data set “Solubility (qualitative)”, the “Solubility in organic solvents” value is “poorly soluble in most organic solvents” and the Solubility in water result is on record as “soluble in water”.

`[Cl-].[Na+]` [NaCl, sodium chloride]: in data set [1], the “Optical Density at 680 nm after 7 days of media growth, NaCl control experiment” value was “(0.75 NaCl)”.

The values are drawn from patent US20080317700A1 (priority 2006, published 2008).
